Literature values in patent US9561285B2, “Carrier-linked carbamate prodrug linkers” (Ascendis Pharma AS, priority 2010, dated 2017).

Conditions: buffer, pH 7

In the case of O=C(Nc1ccccc1)Oc1ccc([N+](=O)[O-])cc1 [p-nitrophenyl-O—CO—NH-phenyl], the half-life of hydrolysis is given as 26 s.
